# Values of other authors, collected in patent publication US10306887B2, “Composition and methods for modulation of the octopamine receptor and its homologs” (THE BOARD OF REGENTS OF THE UNIVERSITY OF TEXAS SYSTEMS, priority 2014, dated 2019).
# Entries after “also recorded” stand apart in the source; their conditions may differ.
# How the values were obtained:
# [1] = test system: mated tdc2 or tβh females
# [2] = test system: dissected reproductive system
compound,measurement,setting,value
"NCC(O)c1ccc(O)cc1 (stereo not drawn) [OA, β,4-dihydroxyphenethylamine]",egg-laying,"[1]; OA feeding, mated tdc2 or tβh mutant females",sufficient to induce egg-laying
same,sterility,[1]; feeding OA to mated tβh mutant females,rescues sterility
same,muscle contractions in the ovary,"[2]; OA applied to dissected reproductive system, ovary",enhances muscle contractions in the ovary
same,muscle contractions in the oviduct,"[2]; OA applied to reproductive system, oviduct",inhibits them in the oviduct; also recorded: relaxes the oviduct muscle
